Four compounds from PubChem BioAssay (NCI) can be followed below.

Molecules are shown by their SMILES.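 Protocol summary: plate cells (96-well), add compound at 5 concentrations, incubate 48 h, interpolate endpoints linearly. TGI marks complete inhibition of growth.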

The first assay relates to SK-MEL-2 melanoma. Description: NCI tumour cell line growth inhibition, 48 h.
Compound `CCOC(=O)C(=O)N1C(C)=C(C(=O)OCC)CC(C(=O)OCC)=C1C` had a TGI greater than 100 µM.

Another assay relates to SK-MEL-28 melanoma. Description: NCI tumour cell line growth inhibition, 48 h.
`CC(C)CCNC(=O)c1ccc(CNC(=O)/C=C/c2ccc(OCc3ccccc3)cc2)cc1` returned a TGI greater than 100 µM.
On the same count and under the same terms, for `N#Cc1c2c(c(Nc3ccc(F)cc3)n3c1nc1ccccc13)CCC2` the value was 23.7 µM; for `O=C(O[C@H](/C=C/c1ccccc1)P1(=O)N(Cc2ccccc2)[C@@H]2CCCC[C@H]2N1Cc1ccccc1)c1ccccc1`, greater than 100 µM; for `CCOC(=O)C(=O)N1C(C)=C(C(=O)OCC)CC(C(=O)OCC)=C1C`, greater than 100 µM.

A further assay has as its system SK-MEL-5 melanoma. Description: NCI tumour cell line growth inhibition, 48 h.
For the compound `CC(C)CCNC(=O)c1ccc(CNC(=O)/C=C/c2ccc(OCc3ccccc3)cc2)cc1`, the TGI was greater than 100 µM.
For `N#Cc1c2c(c(Nc3ccc(F)cc3)n3c1nc1ccccc13)CCC2`, the TGI stood at 8.52 µM.
For the compound `O=C(O[C@H](/C=C/c1ccccc1)P1(=O)N(Cc2ccccc2)[C@@H]2CCCC[C@H]2N1Cc1ccccc1)c1ccccc1`, the TGI is 3.88 µM.
Same read-out and setting: next, `CCOC(=O)C(=O)N1C(C)=C(C(=O)OCC)CC(C(=O)OCC)=C1C`: greater than 100 µM.

For the next assay, the system named is SK-OV-3 ovarian. As to the kind of experiment: NCI tumour cell line growth inhibition, 48 h.
For `CC(C)CCNC(=O)c1ccc(CNC(=O)/C=C/c2ccc(OCc3ccccc3)cc2)cc1`, the TGI was greater than 100 µM.
`N#Cc1c2c(c(Nc3ccc(F)cc3)n3c1nc1ccccc13)CCC2` gave a TGI of 26.8 µM.
On the same count and under the same terms, for `O=C(O[C@H](/C=C/c1ccccc1)P1(=O)N(Cc2ccccc2)[C@@H]2CCCC[C@H]2N1Cc1ccccc1)c1ccccc1` the value was greater than 100 µM; for `CCOC(=O)C(=O)N1C(C)=C(C(=O)OCC)CC(C(=O)OCC)=C1C`, greater than 100 µM.

Another assay concerns SN12C renal. Description: NCI tumour cell line growth inhibition, 48 h.
The compound `CC(C)CCNC(=O)c1ccc(CNC(=O)/C=C/c2ccc(OCc3ccccc3)cc2)cc1` gave a TGI greater than 100 µM.
Same read-out and setting: next, `N#Cc1c2c(c(Nc3ccc(F)cc3)n3c1nc1ccccc13)CCC2`: 4.59 µM; `O=C(O[C@H](/C=C/c1ccccc1)P1(=O)N(Cc2ccccc2)[C@@H]2CCCC[C@H]2N1Cc1ccccc1)c1ccccc1`: 9.68 µM; `CCOC(=O)C(=O)N1C(C)=C(C(=O)OCC)CC(C(=O)OCC)=C1C`: greater than 100 µM.

A further assay concerns SNB-19 CNS. Description: NCI tumour cell line growth inhibition, 48 h.
As to `CC(C)CCNC(=O)c1ccc(CNC(=O)/C=C/c2ccc(OCc3ccccc3)cc2)cc1`, the TGI is greater than 100 µM.
On the same count and under the same terms, next, `N#Cc1c2c(c(Nc3ccc(F)cc3)n3c1nc1ccccc13)CCC2`: 22.1 µM; `O=C(O[C@H](/C=C/c1ccccc1)P1(=O)N(Cc2ccccc2)[C@@H]2CCCC[C@H]2N1Cc1ccccc1)c1ccccc1`: greater than 100 µM; `CCOC(=O)C(=O)N1C(C)=C(C(=O)OCC)CC(C(=O)OCC)=C1C`: greater than 100 µM.

The subject of a further assay is SNB-75 CNS. As to the kind of experiment: NCI tumour cell line growth inhibition, 48 h.
`CC(C)CCNC(=O)c1ccc(CNC(=O)/C=C/c2ccc(OCc3ccccc3)cc2)cc1` showed a TGI greater than 100 µM.
Compound `N#Cc1c2c(c(Nc3ccc(F)cc3)n3c1nc1ccccc13)CCC2` displayed a TGI of 16.7 µM.
`CCOC(=O)C(=O)N1C(C)=C(C(=O)OCC)CC(C(=O)OCC)=C1C`: the TGI was greater than 100 µM.

The next assay has as its system SR leukemia. As to the kind of experiment: NCI tumour cell line growth inhibition, 48 h.
Turning to `CC(C)CCNC(=O)c1ccc(CNC(=O)/C=C/c2ccc(OCc3ccccc3)cc2)cc1`, the TGI was greater than 100 µM.
Compound `N#Cc1c2c(c(Nc3ccc(F)cc3)n3c1nc1ccccc13)CCC2` showed a TGI greater than 100 µM.
As to `O=C(O[C@H](/C=C/c1ccccc1)P1(=O)N(Cc2ccccc2)[C@@H]2CCCC[C@H]2N1Cc1ccccc1)c1ccccc1`, the TGI is greater than 100 µM.
Same read-out and setting: next, `CCOC(=O)C(=O)N1C(C)=C(C(=O)OCC)CC(C(=O)OCC)=C1C`: greater than 100 µM.

Another assay deals with SW-620 colon. As to the kind of experiment: NCI tumour cell line growth inhibition, 48 h.
As to `CC(C)CCNC(=O)c1ccc(CNC(=O)/C=C/c2ccc(OCc3ccccc3)cc2)cc1`, the TGI was greater than 100 µM.
Compound `N#Cc1c2c(c(Nc3ccc(F)cc3)n3c1nc1ccccc13)CCC2` returned a TGI of 5.71 µM.
Regarding `O=C(O[C@H](/C=C/c1ccccc1)P1(=O)N(Cc2ccccc2)[C@@H]2CCCC[C@H]2N1Cc1ccccc1)c1ccccc1`, the TGI is greater than 100 µM.
On the same count and under the same terms, for `CCOC(=O)C(=O)N1C(C)=C(C(=O)OCC)CC(C(=O)OCC)=C1C` the value was greater than 100 µM.

For another assay, the system named is T-47D breast. As to the kind of experiment: NCI tumour cell line growth inhibition, 48 h.
In turn, `CC(C)CCNC(=O)c1ccc(CNC(=O)/C=C/c2ccc(OCc3ccccc3)cc2)cc1` came in with a TGI greater than 100 µM.
Regarding `N#Cc1c2c(c(Nc3ccc(F)cc3)n3c1nc1ccccc13)CCC2`, the TGI turned out to be 24 µM.
`O=C(O[C@H](/C=C/c1ccccc1)P1(=O)N(Cc2ccccc2)[C@@H]2CCCC[C@H]2N1Cc1ccccc1)c1ccccc1`: the TGI was determined as 3.66 µM.
The compound `CCOC(=O)C(=O)N1C(C)=C(C(=O)OCC)CC(C(=O)OCC)=C1C` registered a TGI greater than 100 µM.

The next assay concerns TK-10 renal. As to the kind of experiment: NCI tumour cell line growth inhibition, 48 h.
The compound `N#Cc1c2c(c(Nc3ccc(F)cc3)n3c1nc1ccccc13)CCC2` gave a TGI of 6.51 µM.
Still for that read-out and setting: next, `O=C(O[C@H](/C=C/c1ccccc1)P1(=O)N(Cc2ccccc2)[C@@H]2CCCC[C@H]2N1Cc1ccccc1)c1ccccc1`: greater than 100 µM; `CCOC(=O)C(=O)N1C(C)=C(C(=O)OCC)CC(C(=O)OCC)=C1C`: greater than 100 µM.

For another assay, the system named is U251 CNS. Description: NCI tumour cell line growth inhibition, 48 h.
For `CC(C)CCNC(=O)c1ccc(CNC(=O)/C=C/c2ccc(OCc3ccccc3)cc2)cc1`, the TGI was greater than 100 µM.
Same read-out and setting: for `N#Cc1c2c(c(Nc3ccc(F)cc3)n3c1nc1ccccc13)CCC2` the value was 8.01 µM; for `O=C(O[C@H](/C=C/c1ccccc1)P1(=O)N(Cc2ccccc2)[C@@H]2CCCC[C@H]2N1Cc1ccccc1)c1ccccc1`, 31.3 µM.

The test system of a further assay is UACC-257 melanoma. Description: NCI tumour cell line growth inhibition, 48 h.
As for `CC(C)CCNC(=O)c1ccc(CNC(=O)/C=C/c2ccc(OCc3ccccc3)cc2)cc1`, the TGI was greater than 100 µM.
Turning to `N#Cc1c2c(c(Nc3ccc(F)cc3)n3c1nc1ccccc13)CCC2`, the TGI came out at 24.1 µM.
The same measure, in the same setting: next, `O=C(O[C@H](/C=C/c1ccccc1)P1(=O)N(Cc2ccccc2)[C@@H]2CCCC[C@H]2N1Cc1ccccc1)c1ccccc1`: greater than 100 µM; `CCOC(=O)C(=O)N1C(C)=C(C(=O)OCC)CC(C(=O)OCC)=C1C`: greater than 100 µM.

In the next assay the test system is UACC-62 melanoma. As to the kind of experiment: NCI tumour cell line growth inhibition, 48 h.
As to `CC(C)CCNC(=O)c1ccc(CNC(=O)/C=C/c2ccc(OCc3ccccc3)cc2)cc1`, the TGI is greater than 100 µM.
The same measure, in the same setting: for `N#Cc1c2c(c(Nc3ccc(F)cc3)n3c1nc1ccccc13)CCC2` the value was 25.1 µM; for `O=C(O[C@H](/C=C/c1ccccc1)P1(=O)N(Cc2ccccc2)[C@@H]2CCCC[C@H]2N1Cc1ccccc1)c1ccccc1`, 40 µM.
In the case of `CCOC(=O)C(=O)N1C(C)=C(C(=O)OCC)CC(C(=O)OCC)=C1C`, the TGI is greater than 100 µM.

The subject of another assay is UO-31 renal. As to the kind of experiment: NCI tumour cell line growth inhibition, 48 h.
On to `CC(C)CCNC(=O)c1ccc(CNC(=O)/C=C/c2ccc(OCc3ccccc3)cc2)cc1`, for which the TGI was greater than 100 µM.
As to `N#Cc1c2c(c(Nc3ccc(F)cc3)n3c1nc1ccccc13)CCC2`, the TGI was determined as 7.75 µM.
As to `O=C(O[C@H](/C=C/c1ccccc1)P1(=O)N(Cc2ccccc2)[C@@H]2CCCC[C@H]2N1Cc1ccccc1)c1ccccc1`, the TGI is greater than 100 µM.
The same measure, in the same setting: next, `CCOC(=O)C(=O)N1C(C)=C(C(=O)OCC)CC(C(=O)OCC)=C1C`: greater than 100 µM.
